Target: T1, hSK3 channels (Homo sapiens, UniProt Q9UGI6)
T1 construct: expressed in transfected cells; host or cells: HEK293
Experiment: Whole-cell patch-clamp recording of ionic current through SK channels (subtype 3) in HEK293 cells expressing hSK3
Assay type: cell-based
Procedure: The ionic current through small-conductance Ca^2+-activated K^+ channels (SK channels, subtype 3) is recorded using the whole-cell configuration of the patch-clamp technique in a classic patch-clamp set-up using HEK293 tissue culture cells expressing hSK3 channels as described in e.g. WO 2006/100212.
The SC100 value determined is defined as the Stimulating Concentration required for increasing the baseline current by 100%. The SC100 value determined for Compound 6.5 of the invention was 0.3 μM, which is an indication of its SK3 activating properties.

## Cc1cc(C)n(-c2nc(N(C(=O)OCC(C)C)c3ccc(Cl)cc3)c3ncn(C)c3n2)n1 [Compound 6.5, (4-Chloro-Phenyl)-[2-(3,5-Dimethyl-Pyrazol-1-yl)-9-Methyl-9H-Purin-6-yl]-Carbamic Acid Isobutyl Ester]
  SC100 (Stimulating Concentration required for increasing the baseline current by 100%): 0.3 µM

— patent US8268838B2, “Substituted purinyl-pyrazole derivatives and their use as potassium channel modulators” (Neurosearch A/S, priority 2008, dated 2012)
